Tests used:
Format in all cases: cell-based
Karpas-422 CRBN^WT cells = assay: Cell proliferation in CRBN^WT (CAS9 control) cells, 5 days; conditions: Homo sapiens, 120 h
Description: (§1) The activated B-cell (ABC) and MYC/BCL2 double expressor cell lines SU-DHL-2 and RIVA, the germinal center B-cell (GCB) and MYC/BCL2 double hit cell lines (and expressing BCL6) Karpas-422, SU-DHL-10, WSU-DLCL2, and the primary mediastinal B-cell lymphoma (PMBL) cell line Farage were infected with a CAS9 expressing lentivirus construct to generate the control CAS9 expressing cells. The Cas9 cells had wild type cereblon expression (CRBN^WT).
(§2) To generate the cereblon knock out cells (CRBN^−/−), the individual control CAS9 cells were infected with a construct expressing a subgenomic single guide RNA (sgRNA). Western blot analysis confirmed the absence of cereblon protein in the CRBN^−/− cells, relative to the levels of the housekeeping protein β-tubulin. The CRBN^WT and CRBN^−/− cells were treated with increasing concentrations of Compound 1 for five days.

RIVA CRBN^WT cells = assay: as above; conditions: 120 h
Description: as §1, §2

SU-DHL10 CRBN^WT cells = assay: as above; conditions: Homo sapiens, 120 h
Description: as §1, §2

SU-DHL2 CRBN^WT cells = assay: as above; conditions: Homo sapiens, SU-DHL-2, 120 h
Description: as §1, §2

WSU-DLCL2 CRBN^WT cells = assay: as above; conditions: Homo sapiens, WSUDLCL2, 120 h
Description: as §1, §2

SU-DHL-4 = assay: CellTiter-Glo (CTG) antiproliferative assay, 5-day; conditions: Homo sapiens, 120 h; SU-DHL-4, 5-day assay, n = 6
Protocol: To evaluate the activity of both Compound 1 and Compound 2 in DLBCL cells, a CellTiter-Glo (CTG) assay was performed to measure the antiproliferative activity.

SU-DHL-2^CRBNWT cells [1] = assay: Western blot time- and concentration-response of endogenous substrates; conditions: 10 and 100 nM, entire course of treatment
Description: However, Compound 1 had no activity in SU-DHL-2^CRBN−/− cells, indicating the requirement of cereblon for induction of apoptosis by Compound 1 in DLBCL (FIG. 5 C).

SU-DHL-2^CRBNWT cells [2] = assay: Live-cell imaging of caspase-3 activation; conditions: time course of 112 hours
Protocol: To confirm the timing of induction of apoptosis and its cereblon dependency, a live-cell imager that provides kinetic, real-time caspase-3 activation (indicator of apoptosis) data was used. SU-DHL-2^CRBNWT cells treated with Compound 1 were analyzed for caspase-3 activation by following the cleavage in cells of a specific caspase-3 enzyme substrate over a time course of 112 hours. Compound 1-dependent induction of caspase-3 activity began at 12 hours post treatment and reached maximal induction at ˜72 hours (FIG. 5 D).

SU-DHL-2 cells = assay: Western blot of substrate degradation by each enantiomer, short time-course; conditions: SU-DHL-2, within 2 hours at 1 nM
Protocol: Pure samples of each enantiomer were tested for cellular degradation of substrate proteins measured over a short time-course (FIG. 16). SU-DHL-2 cells were treated for 1, 2, and 6 hours with vehicle control (0.1% DMSO), Compound 1 (1, 10, 100 nM), or Compound 2 (1, 10, 100 nM). Western blot analysis was used to evaluate the extent of degradation of the protein substrates Aiolos, Ikaros, and ZFP91. Compound 1 inhibited Aiolos, Ikaros, and ZFP91 in as early as 1 hour of treatment with as little as 1 nM.

11 DLBCL cell lines = assay: Integrated proteomics (TMT-MS) and RNA-Seq profiling; conditions: 0.04 μM; 12, 24 and 48 hours
Protocol: Biomarkers associated with the cytotoxic effects of Compound 1 treatment in DLBCL, such as signaling and regulatory pathways, were determined by integrative network analysis using transcriptomic and proteomic profiling. The approach consisted of a network flow optimization using a knowledge driven backbone network with protein interactions and regulatory associations similar to what was described previously (Basha, Mauer, Simonovsky, Shpringer, & Yeger-Lotem, 2019; Gosline, Spencer, Ursu, & Fraenkel, 2012).
Briefly, differential expression analysis and differential protein abundance analysis at different timepoints were integrated using a model framework. […]
To begin, cell line sensitivity to Compound 1 was determined by flow cytometry for 40 cell line models using DRAQ7 and Annexin V staining to quantify the reduction in proliferation and induction of apoptosis after five days of compound treatment. […] Sensitivity was calculated by calculating the ratio of (AUCapoptosis/AUClive cells), where smaller ratios indicated resistance, and larger ratios indicated sensitivity. […]

Q: How did the Emax (Karpas-422 CRBN^WT cells) turn out when `O=C1CC[C@H](N2C(=O)c3cccc(NCc4ccc(CN5CC(N6CCOCC6)C5)cc4F)c3C2=O)C(=O)N1` [Compound 1, (S)-2-(2,6-dioxopiperidin-3-yl)-4-((2-fluoro-4-((3-morpholinoazetidin-1-yl)methyl)benzyl)amino)isoindoline-1,3-dione] was run?
A: 5%

Q: What about the IC50 (Karpas-422 CRBN^WT cells) of the same compound?
A: 15 nM

Q: What about the Emax (RIVA CRBN^WT cells) of the same compound?
A: 30%

Q: And the IC50 (RIVA CRBN^WT cells)?
A: 8 nM

Q: What about the Emax (SU-DHL10 CRBN^WT cells) of the same compound?
A: 0%

Q: And the IC50 (SU-DHL10 CRBN^WT cells)?
A: 35 nM

Q: What about the Emax (SU-DHL2 CRBN^WT cells) of the same compound?
A: 1%

Q: What about the IC50 (SU-DHL2 CRBN^WT cells) of the same compound?
A: 2.5 nM

Q: What about the Emax (WSU-DLCL2 CRBN^WT cells) of the same compound?
A: 19%

Q: What about the IC50 (WSU-DLCL2 CRBN^WT cells) of the same compound?
A: 40 nM

Q: What about the IC50 (SU-DHL-4) of the same compound?
A: 22 nM

Q: What about the “Ikaros, Aiolos, and ZFP91 protein expression” value (SU-DHL-2^CRBNWT cells [1]) of the same compound?
A: complete suppression

Q: What about the “start of induction of caspase-3 activity post treatment” value (SU-DHL-2^CRBNWT cells [2]) of the same compound?
A: 12 h

Q: And the “time of maximal induction of caspase-3 activity” value (SU-DHL-2^CRBNWT cells [2])?
A: ~72 h

Q: And the “degradation of each of Aiolos, Ikaros, and ZFP91” value (SU-DHL-2 cells)?
A: More than 50%

Q: And the “genes associated with cell cycle and transcription” value (11 DLBCL cell lines)?
A: global down-regulation

Q: What about the “genes associated with interferon signaling, cytokine/chemokine signaling, apoptosis, cell adhesion, cell-cell junction, GPCRs, extracellular matrix” value (11 DLBCL cell lines) of the same compound?
A: up-regulation
